The subject of data set [1] is HCT116 cells. Kind of data set: MTT antiproliferative assay, HCT116 cells. The class given is cell-based. The note with it: Homo sapiens, HCT-116, HCT116 CRC cell line, triplicate, read-out: IC50 ± SD HCT116. On the technique in general: Tetrazolium assays rely on reduction of a dye to a coloured formazan, in cell work by metabolically active cells.
The test system of data set [2] is HepG2 cells. Nature of the data set: MTT antiproliferative assay, HepG2 cells. The class given is cell-based. The conditions noted are these: Homo sapiens, HepG2 HCC cell line, triplicate, read-out: IC50 ± SD HepG2.
Data set [3] addresses T1, CDK2/CyclinA2 (Homo sapiens, UniProt P24941).
T1 construct: purchased BPS Bioscience Inc. (San Diego, CA, USA)
Nature of the data set: In vitro enzymatic CDK2 inhibition assay (Kinase-Glo luminescence kit). The format is biochemical. The note with it: triplicate; read-out: CDK2 Inhibition IC50 ± SD. The protocol:
. […]. In vitro evaluation of CDK2 inhibition was determined using a commercially available assay kit from BPS Bioscience Inc. (San Diego, CA, USA) as described in the Supplementary Information. […]
serum. After that, the reconstituted MTT was added in an amount equal to 10% of the culture medium volume. Cultures were returned to incubator for 2-4 hours depending on cell type and maximum cell density. Incubation times should be consistent when making comparisons. After the incubation period, cultures were removed from incubator and the resulting formazan crystals were dissolved by adding an amount of MTT Solubilization Soluti on [M-8910] equal to the original culture medium volume. Occasionally, especially in dense cultures, pipetting up and down [trituration] may be required to completely dissolve the MTT formazan crystals.
Absorbance was measured spectrophotometrically at a wavelength of 570 nm. The background absorbance of multiwell plates was measured at 690 nm and subtract from the 570 nm […]
2.2. CDK2/Cyclin A2 inhibitory activity
Promega Kinase-Glo Plus luminescence kinase assay protocol was adopted as reported. […]
reaction by adding 20 μl of diluted CDK2/CyclinA2 enzyme to the wells designated “Positive Control” and "Test Inhibitor Control". […] Measure luminescence using the microplate reader. “Blank” value is subtracted from all readings. […]
(Kinase-Glo reads ATP consumption through a luciferase reaction.)

For data set [4], the system named is normal human fibroblast cell line (WI-38). Kind of data set: MTT cytotoxicity assay, normal human fibroblast cell line WI-38. The format is cell-based. The note with it: WI-38 normal human fibroblasts, read-out: IC50 ± SD WI-38.

On to `COC(=O)Cn1c(C)nc2c(cnn2-c2ccccc2)c1=O` [Compound 2a], for which the 50% inhibitory concentration (IC50) in data set [1] is 19.4 ± 0.86 µM; in data set [2], 32.9 ± 1.67 µM.
For `CCOC(=O)Cn1c(C)nc2c(cnn2-c2ccccc2)c1=O` [Compound 2b], the IC50 in data set [1] came out at 10.9 ± 0.48 µM; in data set [2], 58 ± 2.94 µM.
On the same counts, the results for `Cc1nc2c(cnn2-c2ccccc2)c(=O)n1CC(=O)c1ccc(Cl)cc1` [Compound 3a] are 35.9 ± 1.59 µM and 26.2 ± 1.33 µM.
On the same counts, the results for `Cc1ccc(C(=O)Cn2c(C)nc3c(cnn3-c3ccccc3)c2=O)cc1` [Compound 3b] are 10.8 ± 0.48 µM and 1.9 ± 0.1 µM.
Consider `Cc1nc2c(cnn2-c2ccccc2)c(=O)n1CC(=O)Nc1ccc(F)cc1` [Compound 4a], for which the IC50 in data set [3] is 0.21 ± 0.01 µM; in data set [1], 1.09 ± 0.05 µM; in data set [2], 0.58 ± 0.03 µM; in data set [4], 58.6 µM.
On the same counts, the results for `Cc1nc2c(cnn2-c2ccccc2)c(=O)n1CC(=O)Nc1ccc(Cl)cc1` [Compound 4b] are 0.96 ± 0.05 µM, 3.38 ± 0.15 µM, 2.57 ± 0.13 µM and 48.5 µM.
With `COc1cccc(NC(=O)Cn2c(C)nc3c(cnn3-c3ccccc3)c2=O)c1` [Compound 4c], the melting point fell in the range of 220 to 225 °C. For the same molecule, the IC50 in data set [1] turned out to be 26.4 ± 1.17 µM. Also, in data set [2], the concentration for half-maximal inhibition (IC50) was 87.3 ± 4.42 µM.
As to `Cc1nc2c(cnn2-c2ccccc2)c(=O)n1CC(=O)Nc1cccc2ccccc12` [Compound 4e], the results for the IC50 in data set [1] and in data set [2] were 41.2 ± 1.83 µM and 16.1 ± 0.81 µM, respectively.

One may read the IC50 as the midpoint of a concentration-inhibition curve. As usually defined, the melting point is the temperature, or range, at which the solid turns liquid.
